Laboratory results: the NIST ThermoML archive (doi:10.1021/je034093m)
Several values for one entry are separate records, joined by “and”; a condition that tells them apart may be missing. Equal values may be shown once.

Settings: Capillary rise

CC(C)C [2-methylpropane]
Settings	surface tension liquid-gas
255.02 K	14.85 mN/m
256.94 K	14.69 mN/m
258.83 K	14.36 mN/m and 14.37 mN/m
261.09 K	14.17 mN/m
262.95 K	14.02 mN/m and 14.03 mN/m
264.86 K	13.7 mN/m and 13.72 mN/m
267.09 K	13.46 mN/m and 13.44 mN/m
268.86 K	13.16 mN/m
270.9 K	12.95 mN/m and 12.97 mN/m
273.38 K	12.68 mN/m
275.39 K	12.57 mN/m and 12.6 mN/m
277.16 K	12.29 mN/m
279.34 K	12.06 mN/m
281.3 K	11.77 mN/m and 11.75 mN/m
283.29 K	11.62 mN/m
285.43 K	11.28 mN/m
287.5 K	11.14 mN/m and 11.13 mN/m
289.31 K	10.86 mN/m
291.65 K	10.74 mN/m and 10.72 mN/m
293.66 K	10.5 mN/m
295.75 K	10.28 mN/m
297.83 K	10.01 mN/m and 10.05 mN/m
299.48 K	9.84 mN/m
301.43 K	9.57 mN/m and 9.6 mN/m
303.91 K	9.37 mN/m and 9.38 mN/m
305.75 K	9.14 mN/m
307.41 K	8.98 mN/m
309.49 K	8.75 mN/m and 8.77 mN/m
311.81 K	8.52 mN/m and 8.51 mN/m
313.49 K	8.29 mN/m and 8.31 mN/m
315.82 K	8.05 mN/m and 8.09 mN/m
317.75 K	7.9 mN/m and 7.91 mN/m
319.32 K	7.69 mN/m and 7.68 mN/m
321.96 K	7.45 mN/m and 7.46 mN/m
323.71 K	7.25 mN/m and 7.22 mN/m
325.37 K	7.02 mN/m and 7.04 mN/m
327.8 K	6.79 mN/m and 6.81 mN/m
329.49 K	6.71 mN/m
331.68 K	6.42 mN/m
333.28 K	6.29 mN/m

CCC [propane]
Settings	surface tension liquid-gas
253.08 K	12.98 mN/m
254.8 K	12.7 mN/m and 12.69 mN/m
256.89 K	12.38 mN/m
258.68 K	12.21 mN/m and 12.2 mN/m
260.71 K	11.94 mN/m and 11.97 mN/m
262.7 K	11.56 mN/m and 11.58 mN/m
265.09 K	11.31 mN/m and 11.32 mN/m
267.09 K	11.06 mN/m and 11.05 mN/m
268.88 K	10.81 mN/m
270.72 K	10.52 mN/m and 10.53 mN/m
273.2 K	10.17 mN/m
275.38 K	9.97 mN/m
277.43 K	9.71 mN/m
279.39 K	9.4 mN/m
281.48 K	9.14 mN/m and 9.15 mN/m
289.27 K	8.14 mN/m and 8.15 mN/m
293.85 K	7.49 mN/m
295.73 K	7.23 mN/m
297.4 K	7.04 mN/m
299.41 K	6.85 mN/m and 6.87 mN/m
301.45 K	6.62 mN/m
303.54 K	6.33 mN/m and 6.34 mN/m
305.17 K	6.21 mN/m and 6.22 mN/m
308.01 K	5.86 mN/m
310.73 K	5.55 mN/m
314.39 K	5.06 mN/m
315.71 K	4.85 mN/m and 4.84 mN/m
317.64 K	4.62 mN/m and 4.63 mN/m
319.43 K	4.42 mN/m
321.41 K	4.25 mN/m and 4.26 mN/m
323.34 K	4.01 mN/m and 4.02 mN/m
325.32 K	3.8 mN/m and 3.81 mN/m
327.4 K	3.6 mN/m and 3.62 mN/m
329.79 K	3.32 mN/m and 3.31 mN/m
331.79 K	3.12 mN/m and 3.13 mN/m
333.3 K	2.94 mN/m and 2.95 mN/m
